Results reported in patent US20210161851A1, “COMBINATION THERAPY OF LYMPHOMA” (Deutsches Krebsforschungszentrum, priority 2019, published 2021).

Columns and labels:
HH cells = test: Cell death assay in CTCL cell line HH; type: cell-based; settings: different concentrations, 24 h
Source text: (§1) ABT-199, ABT-263 and the mouse antibody against human Bcl-2 were obtained from Santa Cruz Biotechnology. DMF and monomethyl fumarate (MMF) were purchased from Sigma-Aldrich. Caspase-3 and cleaved-Caspase-3 antibodies came from Cell Signaling Technology, Ki-67 antibodies from Novacastra. Primary CD4+ T cells were isolated from heparinized whole blood and treated as indicated (Nicolay et al. (2016), Blood 128(6):805-815). Cell lines were obtained from ATCC (HH, J16) or generously donated by Drs. Gniadecki and Pless from Bispebjerg Hospital Copenhagen, Denmark and Dr. Kaltoft, Aarhus University Denmark (SeAx) or Prof. Eichmuiller from DKFZ Heidelberg, Germany (MyLa), and cultured as described (Nikolay et al, ibd.)
(§2) 1.3 Cell Death Assays, Quantitative Reverse Transcript (qRT) PCR, Western Blot were Performed as According to Standard Methods.

[1] = tested on: primary healthy CD4+ T cells; test: Cell death assay in primary CD4+ cells of healthy donors; type: cell-based, human; settings: different concentrations
Method: (§3) Seven patients with Sezary syndrome (CTCL stage IV) diagnosed according to WHO-EORTC classification of CTCL and criteria of the international society of cutaneous lymphomas were included in the study. As controls, we investigated blood samples of healthy donors (n=7). Informed consent was obtained from all subjects before inclusion. The study was conducted according to ethical guidelines at our institution and the Helsinki Declaration and was approved by the ethics committee II of the University of Heidelberg.
as §1, §2

[2] = tested on: caspase 3 cleavage in SeAx cells; test: Western blot of caspase 3 cleavage in SeAx cells; type: cell-based; settings: 100 or 1000 nM ABT-199, 50 μM DMF
Source text: as §1, §2

[3] = tested on: Bax/Bak interaction in SeAx cells; test: Proximity ligation assay (PLA) of Bax/Bak in SeAx cells; type: cell-based
Method: (§4) In order to determine protein interactions a proximity ligation assay was performed with Duolink® PLA by Sigma-Aldrich as described before (Schroeder et al. (2017), Nat. Publ. Gr. October 2016:1-12). The rabbit antibody against Bak and the mouse antibody against Bax were obtained from Abcam.

J16 cells = test: Cell death assay in non-CTCL cell line J16; type: cell-based; settings: different concentrations, 24 h
Source text: as §1, §2

[4] = tested on: caspase 3 cleavage in HH cells; test: Western blot of caspase 3 cleavage in HH cells; type: cell-based; settings: 100 or 1000 nM ABT-199, 50 μM DMF
Source text: as §1, §2

[5] = tested on: Bax/Bak interaction in HH cells; test: Proximity ligation assay (PLA) of Bax/Bak in HH cells; type: cell-based
Method: as §4

MyLa cells = test: Cell death assay in CTCL cell line MyLa; type: cell-based
Source text: as §1, §2

SeAx xenograft tumors [6] = test: Histology and immunohistochemistry of SeAx xenograft tumors; type: in vivo, NSG mice; settings: for Ki-67 positivity (proliferation index) / caspase 3 cleavage within the xenograft tumors: immunohistochemistry, 400×
Method: (§5) All animal experiments were in accordance with the approved guidelines of the local Governmental Committee for Animal Experimentation (RP Karlsruhe, Germany, license G282/15). Mice were maintained at a 12 h light-dark cycle with unrestricted diet and water. Under isoflurane inhalation anesthesia (1-1.5% in O2, 0.5 L/min), 3×10^6 SeAx cells suspended in 30 μl of PBS/Matrigel (1:1, v/v) were injected intradermally (i.d.) into the right flank of 6-7-week-old female NOD SCID gamma (NSG) mice recruited from the Center for Preclinical Research, DKFZ, Heidelberg and kept on Kliba diet 3307 with n=8 mice/group. When tumors reached palpable size (mean of 0.025 cm^3) mice were randomized and treated first as indicated once by oral gavage with ABT-199 dissolved in a vehicle of […], 30% polyethylenglycol 400 and 10% ethanol at a concentration of 100 mg/kg body weight, 10 μl/g mouse or vehicle alone as indicated. One day later, intraperitoneal (i.p.) treatment with DMF once daily for 28 days was started as indicated. The compound, dissolved at 3 mg/ml in 30° C. pre-warmed PBS, was given with 10 μl/g mouse at a dose of 30 mg/kg bodyweight. For control, PBS (10 μl/g mouse) was injected. Tumor volume was measured with a caliper 2-3 times a week and calculated according to the formula: V=(length (mm)×width (mm)^2)/2. Necropsies were taken when one tumor diameter reached 1.5 cm or when mice reached stop criterion of the German Society of Laboratory Animal Sciences (GV-SOLAS), here defined as survival. For tissue staining, the liver and a quarter of the tumor was fixed in 4% PBS-buffered formaldehyde and embedded into paraffin according to routine procedures.
Hematoxylin and eosin staining as well as immunohistochemistry were performed on 5 μm paraffin sections as described. For immunohistochemical stainings, paraffin-embedded tissue was sectioned into 5 μm slices. Ki-67 was detected in deparaffinized tissue specimens after antigen retrieval (20 min at boiling temperature in 10 mM sodium citrate pH 6.0), block of endogenous peroxidases in 3% H2O2 in PBS for 10 min, block in 100% goat serum for 1 h at room temperature (RT) and incubation overnight at 4° C. in a 1:250 dilution of anti-Ki-67 antibodies (NCL-Ki67p, Novacastra). Slides were incubated with appropriate horse-radish peroxidase (HRP)-coupled secondary antibody (1:200) for 1 h at RT, incubated with HRP substrate solution (DAB/H2O2, Sigma, Munich/Germany). Nuclei were counterstained with hematoxylin for 1 min. Mounting was in Eukitt (R. Langenbrinck, Teningen/Germany). Sections incubated without primary antibody were included as negative controls.
Immunohistochemical assessment of the tissue slides was performed by a dermatologist (JPN) and a pathologist (TA).
For microscopy, the following Nikon objective lenses were used (Nikon, Tokio, Japan): Nikon Plan Apoλ 2×/0.1, Nikon Plan Apoλ 20×/0.75. Microscopy was performed at 22° C. throughout with cryopreserved or paraffin sections. As fluorochromes phycoerythrin (PE), fluorescein-isothiocyanate (FITC) and DAPI were used for red, green and blue stainings, respectively. The micrographs were taken with a Nikon DS-Fi2 camera using the Nikon DS-L3 software.

SeAx cells = test: Cell death assay in CTCL cell line SeAx; type: cell-based; settings: different concentrations, 24 h
Source text: as §1, §2

SeAx xenograft tumors [7] = test: Orthotopic SeAx xenograft CTCL mouse model: tumor growth and survival; type: in vivo, NSG mice; settings: for tumor growth: ABT-199 100 mg/kg once oral, DMF 30 mg/kg i.p. once daily for 28 days; for overall survival: SeAx xenograft NSG mice; for animals still under follow-up (survival rate): day 30, one day after the end of the treatment phase
Method: as §5

primary CD4+ CTCL cells = test: Cell death assay in primary CD4+ CTCL cells of Sezary patients; type: cell-based, human; settings: increasing concentrations, 24 h and 48 h
Method: as §3, §1, §2

Bcl-xL = Bcl-xL (Homo sapiens, UniProt Q07817); settings: inhibition of Bcl-xL; cited from earlier work
Bcl-xL, sequence (Q07817 whole entry, species assumed): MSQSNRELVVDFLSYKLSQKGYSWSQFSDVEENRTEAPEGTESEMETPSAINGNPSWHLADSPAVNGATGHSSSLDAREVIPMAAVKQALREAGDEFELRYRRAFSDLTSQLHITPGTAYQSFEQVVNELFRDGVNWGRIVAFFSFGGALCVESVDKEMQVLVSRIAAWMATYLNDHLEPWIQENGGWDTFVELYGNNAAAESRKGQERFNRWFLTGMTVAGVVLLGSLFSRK

Bcl-2 = test: Western blot of Bcl-2 family protein levels upon NFκB inhibition; type: cell-based, human; settings: J16, HH and SeAx cells
Source text: as §1, §2

| SMILES | cell death response (HH cells) | cell death effect [1] | caspase 3 cleavage [2] | green fluorescence (Bax/Bak interaction, PLA) [3] | cell death sensitivity (J16 cells) | caspase 3 cleavage [4] | Bax/Bak interaction (PLA) [5] | cell death sensitivity (MyLa cells) | Ki-67 positivity (proliferation index) (SeAx xenograft tumors [6]) | caspase 3 cleavage within the xenograft tumors (SeAx xenograft tumors [6]) | cell death sensitivity (SeAx cells) | tumor growth (SeAx xenograft tumors [7]) | overall survival (SeAx xenograft tumors [7]) | animals still under follow-up (survival rate) (SeAx xenograft tumors [7]) [%] | animals dropped out of the group (SeAx xenograft tumors [7]; within the first 10 days after monotreatment, ABT-199 100 mg/kg once by oral gavage, n=8) | specific cell death (primary CD4+ CTCL cells) | number of circulating platelets (Bcl-xL) | protein levels of Bcl-2 or other anti-apoptotic Bcl-2 family members like Mcl-1 (Bcl-2) | mitotic activity (mitosis figures in H&E specimens) (SeAx xenograft tumors [6]; 200× magnification) |
| --- | --- | --- | --- | --- | --- | --- | --- | --- | --- | --- | --- | --- | --- | --- | --- | --- | --- | --- | --- |
| CC1(C)CCC(CN2CCN(c3ccc(C(=O)NS(=O)(=O)c4ccc(NCC5CCOCC5)c([N+](=O)[O-])c4)c(Oc4cnc5[nH]ccc5c4)c3)CC2)=C(c2ccc(Cl)cc2)C1 [ABT-199, 4-[4-[[2-(4-chlorophenyl)-4,4-dimethyl-1-cyclohexen-1-yl]methyl]-1-piperazinyl]-N-[[3-nitro-4-[[(tetrahydro-2H-pyran-4-yl)methyl]amino]phenyl]sulfonyl]-2-(1H-pyrrolo[2,3-b]pyridin-5-yloxy)-Benzamide] | barely any response | weak effect | dose-dependent caspase 3 cleavage | significant increase in green fluorescence | by far attenuated cell death sensitivity | had no effect | had no effect | high cell death sensitivity | slightly reduced positivity for Ki-67 | slightly increased caspase 3 cleavage | high cell death sensitivity | weak, but not significant decrease in tumor growth | no advantage with respect to survival | 0 | 3/8 | dose-dependent specific CD4+ T cell death after 24 h and 48 h with significantly higher rates in Sezary patients' cells than in those from healthy donors |  |  |  |
| CC1(C)CCC(c2ccc(Cl)cc2)=C(CN2CCN(c3ccc(C(=O)NS(=O)(=O)c4ccc(N[C@H](CCN5CCOCC5)CSc5ccccc5)c(S(=O)(=O)C(F)(F)F)c4)cc3)CC2)C1 [ABT-263, (R)-4-(4-((4′-chloro-4,4-dimethyl-3,4,5,6-tetrahydro-[1,1′-biphenyl]-2-yl)methyl)piperazin-1-yl)-N-((4-((4-morpholino-1-(phenylthio)butan-2-yl)amino)-3-((trifluoromethyl)sulfonyl)phenyl)sulfonyl)benzamide] | barely any response | weak effect |  |  | by far attenuated cell death sensitivity |  |  | high cell death sensitivity |  |  | high cell death sensitivity |  |  |  |  | dose-dependent specific CD4+ T cell death after 24 h and 48 h with significantly higher rates in Sezary patients' cells than in those from healthy donors | concentration-dependent decrease in the number of circulating platelets |  |  |
| CN(C)CC[C@H](CSc1ccccc1)Nc1ccc(S(=O)(=O)NC(=O)c2ccc(N3CCN(Cc4ccccc4-c4ccc(Cl)cc4)CC3)cc2)cc1[N+](=O)[O-] [ABT-737, 4-[4-[(4′-chloro[1,1′-biphenyl]-2-yl)methyl]-1-piperazinyl]-N-[[4-[[(1R)-3-(dimethylamino)-1-[(phenylthio)methyl]propyl]amino]-3-nitrophenyl]sulfonyl]-Benzamide] |  |  |  |  |  |  |  |  |  |  |  |  |  |  |  |  | concentration-dependent decrease in the number of circulating platelets |  |  |
| COC(=O)/C=C/C(=O)OC [DMF, Dimethyl (E)-butenedioate] |  |  |  |  |  | could induce significant caspase 3 cleavage | had no effect |  | slightly reduced positivity for Ki-67 | slightly increased caspase 3 cleavage |  | weak, but not significant decrease in tumor growth | overall survival benefit | 13 |  |  |  | no influence | significant decrease in mitotic activity |
